Experimental data reported in ChEMBL document CHEMBL1671654, “In vivo activity of the pyrrolopyrazolyl-substituted oxazolidinone RWJ-416457” (Antimicrob Agents Chemother, 2009).
In brackets after ≈: the same amount, converted by molar mass. Activity calls are given as the source filed them. No cut-off for these calls is given here.

Experiments:
Mus musculus [1] = test: fCmax in CF-1 mouse at 10 mg/kg, sc; type: ADME, organism-based; parameters: dose 10 mg/kg, route subcutaneous; conditions: in vivo
[2] = Clearance in CF-1 mouse at 2 mg/kg, iv; type: ADME, organism-based; parameters: dose 2 mg/kg, route intravenous; conditions: in vivo
Mus musculus [3] = test: fAUC (0 to 24 hrs) in CF-1 mouse at 10 mg/kg, po; type: ADME, organism-based; parameters: dose 10 mg/kg, route oral; conditions: in vivo
[4] = Apparent oral clearance in CF-1 mouse at 10 mg/kg, po; type: ADME, organism-based; parameters: dose 10 mg/kg, route oral; conditions: in vivo
[5] = Ratio of fAUC (24 hrs) for community-associated methicillin-resistant Staphylococcus aureus OC8525 infected sc dosed mouse to MIC for community-associated methicillin-resistant Staphylococcus aureus OC8525; type: functional
Staphylococcus aureus [6] = test: Antibacterial activity against community-associated methicillin-resistant Staphylococcus aureus OC8525 infected in iv dosed Swiss Webster mouse administered at 1 to 3 hrs post infection measured after 3 days; type: functional
Staphylococcus aureus [7] = test: Antibacterial activity against community-associated methicillin-resistant Staphylococcus aureus OC8525 infected in sc dosed Swiss Webster mouse administered at 1 to 3 hrs post infection measured after 3 days; type: functional
[8] = Tmax in CF-1 mouse serum at 10 mg/kg, po; type: ADME, organism-based; parameters: dose 10 mg/kg, route oral
Staphylococcus aureus [9] = test: Antibacterial activity against Methicillin-susceptible Staphylococcus aureus ATCC 13709 after 16 to 20 hrs by broth microdilution method; type: functional
[10] = Ratio of fAUC (24 hrs) for Methicillin-susceptible Staphylococcus aureus ATCC 13709 infected sc dosed mouse to MIC for Methicillin-susceptible Staphylococcus aureus ATCC 1370; type: functional
[11] = Cmax in CF-1 mouse at 2 mg/kg, iv; type: ADME, organism-based; parameters: dose 2 mg/kg, route intravenous; conditions: in vivo
Staphylococcus aureus [12] = test: Antibacterial activity against Methicillin-susceptible Staphylococcus aureus assessed as skin lesion size; type: functional
[13] = Ratio of fAUC (24 hrs) for community-associated methicillin-resistant Staphylococcus aureus OC8525 infected iv dosed mouse to MIC for community-associated methicillin-resistant Staphylococcus aureus OC8525; type: functional
Staphylococcus aureus [14] = test: Bacteriostatic activity against methicillin-susceptible Staphylococcus aureus Smith ATCC 13709 infected in SKH1 mouse at 20 mg/kg/day, po administered post infection measured after 48 hrs; type: functional, organism-based
[15] = Tmax in CF-1 mouse serum at 10 mg/kg, sc; type: ADME, organism-based; parameters: dose 10 mg/kg, route subcutaneous
[16] = Ratio of fAUC (24 hrs) for penicillin-susceptible Streptococcus pneumoniae ATCC 6301 infected po dosed mouse to MIC for penicillin-susceptible Streptococcus pneumoniae ATCC 6301; type: functional
Streptococcus pneumoniae [17] = test: Antibacterial activity against penicillin-susceptible Streptococcus pneumoniae ATCC 6301 after 16 to 20 hrs by broth microdilution method; type: functional
Staphylococcus aureus [18] = test: Antibacterial activity against Methicillin-susceptible Staphylococcus aureus ATCC 13709 after 16 to 20 hrs by broth microdilution method relative to Linezolid; type: functional
Staphylococcus aureus [19] = test: Antibacterial activity against methicillin-susceptible Staphylococcus aureus Smith ATCC 13709 infected in SKH1 mouse assessed as log reduction in CFU/g skin at => 80 mg/kg/day, po administered post infection measured after 48 hrs; type: functional
Streptococcus pneumoniae [20] = test: Antibacterial activity against penicillin-susceptible Streptococcus pneumoniae ATCC 6301 infected in po dosed Swiss Webster mouse administered at 1 to 3 hrs post infection measured after 3 days; type: functional; conditions: ATCC 6301, po
Staphylococcus aureus [21] = test: Antibacterial activity against community-associated methicillin-resistant Staphylococcus aureus OC8525 infected in po dosed Swiss Webster mouse administered at 1 to 3 hrs post infection measured after 3 days; type: functional
[22] = Ratio of fAUC (24 hrs) for penicillin-susceptible Streptococcus pneumoniae ATCC 6301 infected iv dosed mouse to MIC for penicillin-susceptible Streptococcus pneumoniae ATCC 6301; type: functional
Streptococcus pneumoniae [23] = test: Antibacterial activity against penicillin-susceptible Streptococcus pneumoniae ATCC 6301 after 16 to 20 hrs by broth microdilution method relative to Linezolid; type: functional
[24] = Half life in CF-1 mouse at 10 mg/kg, po; type: ADME, organism-based; parameters: dose 10 mg/kg, route oral; conditions: in vivo
[25] = Ratio of fAUC (24 hrs) for Methicillin-susceptible Staphylococcus aureus ATCC 13709 infected iv dosed mouse to MIC for Methicillin-susceptible Staphylococcus aureus ATCC 1370; type: functional
[26] = AUC (0 to 24 hrs) in CF-1 mouse at 10 mg/kg, po; type: ADME, organism-based; parameters: time < 24 hr, dose 10 mg/kg, route oral; conditions: plasma
Mus musculus [27] = test: fCmax in CF-1 mouse at 2 mg/kg, iv; type: ADME, organism-based; parameters: dose 2 mg/kg, route intravenous; conditions: in vivo
Mus musculus [28] = test: fAUC (0 to 24 hrs) in CF-1 mouse at 2 mg/kg, iv; type: ADME, organism-based; parameters: dose 2 mg/kg, route intravenous; conditions: in vivo
[29] = Half life in CF-1 mouse at 10 mg/kg, sc; type: ADME, organism-based; parameters: dose 10 mg/kg, route subcutaneous; conditions: in vivo
[30] = Cmax in CF-1 mouse at 10 mg/kg, sc; type: ADME, organism-based; parameters: dose 10 mg/kg, route subcutaneous; conditions: in vivo
Staphylococcus aureus [31] = test: Antibacterial activity against community-associated methicillin-resistant Staphylococcus aureus OC8525 infected in SKH1 mouse assessed as log reduction in CFU/g skin at 5 mg/kg/day, po administered post infection measured after 48 hrs; type: functional, organism-based
[32] = Ratio of fAUC (24 hrs) for Methicillin-susceptible Staphylococcus aureus ATCC 13709 infected po dosed mouse to MIC for Methicillin-susceptible Staphylococcus aureus ATCC 1370; type: functional
[33] = Ratio of fAUC (24 hrs) for penicillin-susceptible Streptococcus pneumoniae ATCC 6301 infected sc dosed mouse to MIC for penicillin-susceptible Streptococcus pneumoniae ATCC 6301; type: functional
[34] = AUC (0 to 24 hrs) in CF-1 mouse at 10 mg/kg, sc; type: ADME, organism-based; parameters: time < 24 hr, dose 10 mg/kg, route subcutaneous; conditions: plasma
Staphylococcus aureus [35] = test: Antibacterial activity against methicillin-susceptible Staphylococcus aureus ATCC 13709 infected in po dosed Swiss Webster mouse administered at 1 to 3 hrs post infection measured after 3 days; type: functional; conditions: ATCC 13709, po
Staphylococcus aureus [36] = test: Antibacterial activity against community-associated methicillin-resistant Staphylococcus aureus OC8525 infected in SKH1 mouse assessed as log reduction in CFU/g skin up to 320 mg/kg/day, po administered post infection measured after 48 hrs; type: functional
Streptococcus pneumoniae [37] = test: Antibacterial activity against penicillin-susceptible Streptococcus pneumoniae ATCC 6301 infected in po dosed CF-1 mouse administered at 24 hrs post infection measured after 48 hrs relative to Linezolid; type: functional
Staphylococcus aureus [38] = test: Antibacterial activity against methicillin-susceptible Staphylococcus aureus ATCC 13709 infected in sc dosed Swiss Webster mouse administered at 1 to 3 hrs post infection measured after 3 days; type: functional; conditions: ATCC 13709, sc
Mus musculus [39] = test: fAUC (0 to 24 hrs) in CF-1 mouse at 10 mg/kg, sc; type: ADME, organism-based; parameters: dose 10 mg/kg, route subcutaneous; conditions: in vivo
Streptococcus pneumoniae [40] = test: Antibacterial activity against penicillin-susceptible Streptococcus pneumoniae ATCC 6301 infected in sc dosed Swiss Webster mouse administered at 1 to 3 hrs post infection measured after 3 days; type: functional; conditions: ATCC 6301, sc
Staphylococcus aureus [41] = test: Antibacterial activity against methicillin-susceptible Staphylococcus aureus ATCC 13709 infected in iv dosed Swiss Webster mouse administered at 1 to 3 hrs post infection measured after 3 days; type: functional; conditions: ATCC 13709, iv
Streptococcus pneumoniae [42] = test: Antibacterial activity against penicillin-susceptible Streptococcus pneumoniae ATCC 6301 infected in iv dosed Swiss Webster mouse administered at 1 to 3 hrs post infection measured after 3 days; type: functional; conditions: ATCC 6301, iv
[43] = Half life in CF-1 mouse at 2 mg/kg, iv; type: ADME, organism-based; parameters: dose 2 mg/kg, route intravenous; conditions: in vivo
Staphylococcus aureus [44] = test: Antibacterial activity against Methicillin-resistant Staphylococcus aureus assessed as skin lesion size; type: functional
[45] = AUC (0 to 24 hrs) in CF-1 mouse at 2 mg/kg, iv; type: ADME, organism-based; parameters: time < 24 hr, dose 2 mg/kg, route intravenous; conditions: plasma
[46] = Ratio of fAUC (24 hrs) for community-associated methicillin-resistant Staphylococcus aureus OC8525 infected po dosed mouse to MIC for community-associated methicillin-resistant Staphylococcus aureus OC8525; type: functional
[47] = Cmax in CF-1 mouse at 10 mg/kg, po; type: ADME, organism-based; parameters: dose 10 mg/kg, route oral; conditions: in vivo
[48] = Apparent oral clearance in CF-1 mouse at 10 mg/kg, sc; type: ADME, organism-based; parameters: dose 10 mg/kg, route oral; conditions: in vivo
Staphylococcus aureus [49] = test: Antibacterial activity against community-associated methicillin-resistant Staphylococcus aureus OC8525 after 16 to 20 hrs by broth microdilution method; type: functional
Staphylococcus aureus [50] = test: Antibacterial activity against methicillin-susceptible Staphylococcus aureus Smith ATCC 13709 infected in SKH1 mouse assessed as log reduction in CFU/g skin at 5 mg/kg/day, po administered post infection measured after 48 hrs; type: functional, organism-based
Mus musculus [51] = test: fCmax in CF-1 mouse at 10 mg/kg, po; type: ADME, organism-based; parameters: dose 10 mg/kg, route oral; conditions: in vivo
Staphylococcus aureus [52] = test: Antibacterial activity against community-associated methicillin-resistant Staphylococcus aureus OC8525 infected in SKH1 mouse assessed as log reduction in CFU/g skin up to 25 mg/kg/day, sc administered post infection measured after 48 hrs; type: functional, organism-based
Staphylococcus aureus [53] = test: Bacteriostatic activity against methicillin-susceptible Staphylococcus aureus Smith ATCC 13709 infected in SKH1 mouse upto 25 mg/kg/day, sc administered post infection measured after 48 hrs; type: functional, organism-based

Work on `CC(=O)NC[C@H]1CN(c2ccc(N3Cc4cn(C)nc4C3)c(F)c2)C(=O)O1` yielded a fCmax (Mus musculus [1]) of 4.1 µg/mL, a clearance [2] of 10.5 mL/min/kg and a fAUC (Mus musculus [3]) of 13000 ng·h/mL. The CL/F [4] was 7.17 mL/min/kg, the fAUC/MIC [5] was 4.1 and the ED50 (Staphylococcus aureus [6]) was 1.5 mg/kg/day. The ED50 (Staphylococcus aureus [7]) was 3.5 mg/kg/day, the Tmax [8] was 2 h and the MIC (Staphylococcus aureus [9]) was 1 µg/mL (≈ 2.68 µM). The fAUC/MIC [10] was 8.3, the Cmax [11] was 4400 ng/mL and the Activity (Staphylococcus aureus [12]) was 14%. For the same molecule, the fAUC/MIC [13] was 4.3, the Activity (Staphylococcus aureus [14]) was “Active” and the Tmax [15] was 0.5 h. For the same molecule, the fAUC/MIC [16] was 13, the MIC (Streptococcus pneumoniae [17]) was 1 µg/mL (≈ 2.68 µM) and the “fold change (FC)” value (Staphylococcus aureus [18]) was 2. The FC (Staphylococcus aureus [19]) was 0.9, the ED50 (Streptococcus pneumoniae [20]) was 3.1 mg/kg/day and the ED50 (Staphylococcus aureus [21]) was 2.1 mg/kg/day. For the same molecule, the fAUC/MIC [22] was 8.6, the “fold change (FC)” value (Streptococcus pneumoniae [23]) was 2 and the half-life [24] was 3.4 h. For the same molecule, the fAUC/MIC [25] was 8.6, the AUC(0-t) at 24 h [26] was 23000 ng·h/mL and the fCmax (Mus musculus [27]) was 2.4 µg/mL. The fAUC (Mus musculus [28]) was 1700 ng·h/mL, the half-life [29] was 2 h and the Cmax [30] was 7500 ng/mL. The Activity (Staphylococcus aureus [31]) was “inactive”, the fAUC/MIC [32] was 13 and the fAUC/MIC [33] was 8.3. The AUC(0-t) at 24 h [34] was 15000 ng·h/mL, the ED50 (Staphylococcus aureus [35]) was 3.4 mg/kg/day and the FC (Staphylococcus aureus [36]) was 1. The “fold change (FC)” value (Streptococcus pneumoniae [37]) was 2, the ED50 (Streptococcus pneumoniae [37]; Streptococcus pneumoniae, ATCC 6301, po) was 3.1 mg/kg/day and the ED50 (Staphylococcus aureus [38]) was 4.7 mg/kg/day. For the same molecule, the fAUC (Mus musculus [39]) was 8300 ng·h/mL, the ED50 (Streptococcus pneumoniae [40]) was 9.3 mg/kg/day and the ED50 (Staphylococcus aureus [41]) was 4 mg/kg/day. It also gave an ED50 (Streptococcus pneumoniae [42]) of 18 mg/kg/day, a half-life [43] of 1.5 h and an Activity (Staphylococcus aureus [44]) of 23%. For the same molecule, the AUC(0-t) at 24 h [45] was 3200 ng·h/mL, the fAUC/MIC [46] was 6.3 and the Cmax [47] was 3500 ng/mL. The CL/F [48] was 10.8 mL/min/kg, the MIC (Staphylococcus aureus [49]) was 2 µg/mL (≈ 5.36 µM) and the Activity (Staphylococcus aureus [50]) was “inactive”. It also gave a fCmax (Mus musculus [51]) of 1.9 µg/mL.

For `CN[C@H](CC(C)C)C(=O)N[C@H]1C(=O)N[C@@H](CC(N)=O)C(=O)N[C@H]2C(=O)N[C@H]3C(=O)N[C@H](C(=O)N[C@H](C(=O)O)c4cc(O)cc(O)c4-c4cc3ccc4O)[C@H](O)c3ccc(c(Cl)c3)Oc3cc2cc(c3O[C@@H]2O[C@H](CO)[C@@H](O)[C@H](O)[C@H]2O[C@H]2C[C@](C)(N)[C@H](O)[C@H](C)O2)Oc2ccc(cc2Cl)[C@H]1O` [VANCOMYCIN], the Activity (Staphylococcus aureus [52]) was “inactive”, the ED50 (Staphylococcus aureus [6]) was 5.6 mg/kg/day and the ED50 (Staphylococcus aureus [7]) was 12 mg/kg/day. The Activity (Staphylococcus aureus [53]) was “Active”, the ED50 (Staphylococcus aureus [38]) was 1.7 mg/kg/day and the ED50 (Staphylococcus aureus [41]) was 0.9 mg/kg/day.
